Laboratory results: patent US20170129903A1, “COMPOUNDS COMPRISING 1,1a,2,5a-TETRAHYDROSPIRO[INDOLE-3,2a-PYRROLE]-2,5a-DIONE SYSTEM AS INHIBITORS P53-MDM2 PROTEIN-PROTEIN INTERACTION” (ADAMED SP. Z O.O., priority 2014, published 2017)

Columns and labels:
[1] = molecular target: T1, p53-Mdm2 interaction (N-terminal domain of Mdm2 protein, amino acids 1-111) (Homo sapiens, UniProt Q00987); assay: Fluorescence polarization (FP) binding assay of p53-Mdm2 interaction; settings: FP assay, 130 nM Mdm2, FAM-labelled p53 peptide; Ki transformed from IC50 using Kenakin equation
T1 construct: N-terminal domain of Mdm2 protein (amino acids 1-111)
T1 sequence (Q00987 1-111): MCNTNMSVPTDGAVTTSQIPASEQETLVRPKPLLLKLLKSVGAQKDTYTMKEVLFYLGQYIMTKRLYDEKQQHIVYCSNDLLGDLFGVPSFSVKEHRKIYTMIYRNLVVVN
Description: The inhibition of p53-Mdm2 interaction was measured using a fluorescence polarization (FP) binding assay. FP measures the rotational movement of molecules in a homogenous suspension. For this assay, N-terminal domain of Mdm2 protein (amino acids 1-111) is combined with a fluorescein-labelled (FAM) peptide derived from p53 trans-activation domain. Upon excitation of the fluorescent ligand with linearly polarized light, […]. If the peptide is bound by Mdm2, rotation will slow down and the perpendicular component will decrease. Disruption of the formation of the peptide-Mdm2 complex due to an inhibitor molecule binding to the p53 binding site of Mdm2 results in faster rotation of the peptide.
Fluorescence polarization experiments were read on Tecan Infinite M1000 reader with the 470 nm excitation and 520 nm emission filters for fluorescein. The fluorescence polarization was measured in black 96-well plates (Corning, CLS3991) in room temperature. Purity of Mdm2 was controlled at >95%. Reaction buffer was optimized by adding 5 mM DTT and 0.1% zwitterionic detergent CHAPS to reduce effect of nonspecific interactions.
The test was performed by combining successive dilution of compounds diluted in dimethyl sulfoxide (DMSO, 5% final concentration) with 130 nM Mdm2 in reaction buffer (PBS, 0.1% CHAPS, 5 mM DTT (dithiothreitol)). After 15 minutes of incubation in room temperature […] FAM-labelled peptide was added. Final reading was performed after 90 minutes of incubation. Dose-dependent binding curves and IC50 values were calculated using GraphPad Prism5 and next transformed to Ki values using Kenakin equation.

[2] = tested on: SJSA-1 osteosarcoma cell line; assay: MTT cell viability assay; assay type: cell-based; settings: Homo sapiens, SJSA-1, 72 h, 72 h incubation, average of 2-5 experiments
Description: The effect of the invented p53-Mdm2 inhibitors on cell viability has been assessed using MTT assay. It is a colorimetric assay that measures conversion of tetrazolium ring of the soluble yellow dye (MTT) into insoluble purple formazan. This process is catalysed solely in mitochondrial dehydrogenases of living cells.
Cells were seeded on 96-well plates and then treated with successive dilutions of tested compounds. After 72 h incubation, MTT was added to the final concentration 0.5 mg/ml. The cells were further incubated for the next 4 h. Then the solution was drained and the remaining formazan crystals were dissolved in 100 μl DMSO. […] All the MTT experiments were independently repeated 2-5 times. Dose-dependent binding curves and IC50 values were calculated using GraphPad Prism 5.

SMILES | Ki [1] [nM] | IC50 [2] [µM]
CC(C)c1c2c(nn1CC1CCCN1C(=O)N(C)C)C(=O)N(c1cccc(Cl)c1)C21C(=O)Nc2cc(Cl)ccc21 (centres unmarked) [Compound 34, 2-[6-chloro-5′-(3-chlorophenyl)-2,6′-dioxo-3′-(propan-2-yl)-1,2,5′,6′-tetrahydro-2′H-spiro[indole-3,4′-pyrrolo [3,4-c]pyrazole]-2′-ylmethyl]-N,N-dimethylpyrrolidine-1-carboxamide] | 235 | 24.2
O=C1C(O)=C(c2ccccc2)C2(C(=O)Nc3cc(Cl)c(Cl)cc32)N1c1cccc(Cl)c1 (centres unmarked) [Compound 43, 5,6-dichloro-1′-(3-chlorophenyl)-4′-hydroxy-3′-phenyl-1,1′,2,5′-tetrahydrospiro [indole-3,2′-pyrrole]-2,5′-dione] | 650 | 43.8
O=C1C(O)=C(C2CCCCC2)C2(C(=O)Nc3cc(Cl)ccc32)N1c1cccc(Cl)c1 (centres unmarked) [Compound 44, 6-chloro-1′-(3-chlorophenyl)-3′-cyclohexyl-4′-hydroxy-1,1′,2,5′-tetrahydrospiro[indole-3,2′-pyrrole]-2,5′-dione] | 281 | 18.1
COc1ccc(Cl)cc1N1C(=O)C(O)=C(c2ccccc2)C12C(=O)Nc1cc(Cl)ccc12 (centres unmarked) [Compound 46, 6-chloro-1′-(5-chloro-2-methoxyphenyl)-4′-hydroxy-3′-phenyl-1,1′,2,5′-tetrahydrospiro[indole-3,2′-pyrrole]-2,5′-dione] | 96 | 32.3
CCOC(=O)CNC1=C(c2ccccc2)C2(C(=O)Nc3cc(Cl)ccc32)N(c2cccc(Cl)c2)C1=O (centres unmarked) [Compound 48, ethyl 2-{[6-chloro-1′-(3-chlorophenyl)-2,5′-dioxo-3′-phenyl-1,1′,2,5′-tetrahydrospiro[indole-3,2′-pyrrole]-4′-yl]amino}acetate] | 205 | 28
CS(=O)(=O)OC1=C(c2ccccc2)C2(C(=O)Nc3cc(Cl)ccc32)N(c2cccc(Cl)c2)C1=O (centres unmarked) [Compound 52, 6-chloro-1′-(3-chlorophenyl)-2,5′-dioxo-3′-phenyl-1,1′,2,5′-tetrahydrospiro[indole-3,2′-pyrrole]-4′-yl methanesulfonate] | 800 | 39.6
NC(=O)CSC1=C(c2ccccc2)C2(C(=O)Nc3cc(Cl)ccc32)N(c2cccc(Cl)c2)C1=O (centres unmarked) [Compound 53, 2-[6-chloro-1′-(3-chlorophenyl)-2,5′-dioxo-3′-phenyl-1,1′,2,5′-tetrahydrospiro [indole-3,2′-pyrrole]-4′-ylsulfanyl] acetamide] | 581 | 29.6
COc1ccc(CSC2=C(O)C(=O)N(c3cccc(Cl)c3)C23C(=O)Nc2cc(Cl)ccc23)cc1 (centres unmarked) [Compound 59, 6-chloro-1′-(3-chlorophenyl)-4′-hydroxy-3′-{[(4-methoxyphenyl)methyl]sulfanyl}-1,1′,2,5′-tetrahydrospiro[indole-3,2′-pyrrole]-2,5′-dione] | 178 | 37.5
CCc1ccccc1-n1nc2c(c1C(C)C)C1(C(=O)Nc3cc(Cl)ccc31)N(c1cc(Cl)ccc1C)C2=O (centres unmarked) [Compound 67, 6-chloro-5′-(5-chloro-2-methylphenyl)-2′-(2-ethylphenyl)-3′-(propan-2-yl)-1,2,5′,6′-tetrahydro-2′H-spiro[indole-3,4′-pyrrolo [3,4-c]pyrazole]-2,6′-dione] | 86 | 12.4
Cc1ccc(Cl)cc1N1C(=O)c2nn(-c3ccccc3C)c(C(C)C)c2C12C(=O)Nc1cc(Cl)ccc12 (centres unmarked) [Compound 68, 6-chloro-5′-(5-chloro-2-methylphenyl)-2′-(2-methylphenyl)-3′-(propan-2-yl)-1,2,5′,6′-tetrahydro-2′H-spiro[indole-3,4′-pyrrolo[3,4-c]pyrazole]-2,6′-dione] | 46 | 6.35
Cc1cccc(-n2nc3c(c2C(C)C)C2(C(=O)Nc4cc(Cl)ccc42)N(c2cc(Cl)ccc2C)C3=O)c1 (centres unmarked) [Compound 69, 6-chloro-5′-(5-chloro-2-methylphenyl)-2′-(3-methylphenyl)-3′-(propan-2-yl)-1,2,5′,6′-tetrahydro-2′H-spiro[indole-3,4′-pyrrolo[3,4-c]pyrazole]-2,6′-dione] | 67 | 4.04

Stronger by Ki [1], values ahead:

Ki [1] [nM] | IC50 [2] [µM] | SMILES
42 | 11.4 | COc1ccccc1-n1nc2c(c1C(C)C)C1(C(=O)Nc3cc(Cl)ccc31)N(c1cc(Cl)ccc1OCCS(C)(=O)=O)C2=O (centres unmarked) [Compound 73, 6-chloro-5′-[5-chloro-2-(2-methanesulfonylethoxy)phenyl]-2′-(2-methoxyphenyl)-3′-(propan-2-yl)-1,2,5′,6′-tetrahydro-2′H-spiro[indole-3,4′-pyrrolo [3,4-c]pyrazole]-2,6′-dione]
36 | 29.9 | O=C1C(O)=C(c2ccccc2)C2(C(=O)Nc3cc(Cl)ccc32)N1c1cc(Cl)ccc1F (centres unmarked) [Compound 45, 6-chloro-1′-(5-chloro-2-fluorophenyl)-4′-hydroxy-3′-phenyl-1,1′,2,5′-tetrahydrospiro[indole-3,2′-pyrrole]-2,5′-dione]
30 | 8.57 | CSc1ccccc1-n1nc2c(c1C(C)C)C1(C(=O)Nc3cc(Cl)ccc31)N(c1cc(Cl)ccc1C)C2=O (centres unmarked) [Compound 77, 6-chloro-5′-(5-chloro-2-methylphenyl)-2′-[2-(methylsulfanyl)phenyl]-3′-(propan-2-yl)-1,2,5′,6′-tetrahydro-2′H-spiro[indole-3,4′-pyrrolo[3,4-c]pyrazole]-2,6′-dione]
29 | 44.5 | Cc1ccc(Cl)cc1N1C(=O)C(O)=C(c2ccccc2)C12C(=O)Nc1cc(Cl)ccc12 (centres unmarked) [Compound 47, 6-chloro-1′-(5-chloro-2-methylphenyl)-4′-hydroxy-3′-phenyl-1,1′,2,5′-tetrahydrospiro[indole-3,2′-pyrrole]-2,5′-dione]
24 | 21.4 | O=C1C(O)=C(c2ccccc2)C2(C(=O)Nc3cc(Cl)ccc32)N1c1cccc(Cl)c1 (centres unmarked) [Compound 41, 6-chloro-1′-(3-chlorophenyl)-4′-hydroxy-3′-phenyl-1,1′,2,5′-tetrahydrospiro[indole-3,2′-pyrrole]-2,5′-dione]
11 | 2.23 | COC(=O)/C=C/COc1ccc(Cl)cc1N1C(=O)c2nn(-c3ccccc3OC)c(C(C)C)c2C12C(=O)Nc1cc(Cl)ccc12 (centres unmarked) [Compound 62, methyl (2E)-4-{4-chloro-2-[6-chloro-2′-(2-methoxyphenyl)-2,6′-dioxo-3′-(propan-2-yl)-1,2,5′,6′-tetrahydro-2′H-spiro[indole-3,4′-pyrrolo[3,4-c]pyrazole]-5′-yl]phenoxy}but-2-enoate]
8.2 | 1.36 | COc1ccc(Cl)cc1N1C(=O)c2nn(-c3ccccc3OC)c(C(C)C)c2C12C(=O)Nc1cc(Cl)ccc12 (centres unmarked) [Compound 30, 6-chloro-5′-(5-chloro-2-methoxyphenyl)-2′-(2-methoxyphenyl)-3′-(propan-2-yl)-1,2,5′,6′-tetrahydro-2′H-spiro[indole-3,4′-pyrrolo[3,4-c]pyrazole]-2,6′-dione]
5.6 | 0.89 | COc1ccccc1-n1nc2c(c1C(C)C)C1(C(=O)Nc3cc(Cl)ccc31)N(c1cncc(Cl)c1)C2=O (centres unmarked) [Compound 72, 6-chloro-5′-(5-chloropyridin-3-yl)-2′-(2-methoxyphenyl)-3′-(propan-2-yl)-1,2,5′,6′-tetrahydro-2′H-spiro[indole-3,4′-pyrrolo [3,4-c]pyrazole]-2,6′-dione]
4.7 | 0.53 | COc1ccccc1-n1nc2c(c1C(C)C)C1(C(=O)Nc3cc(Cl)ccc31)N(c1cc(Cl)ccc1C)C2=O (centres unmarked) [Compound 31, 6-chloro-5′-(5-chloro-2-methylphenyl)-2′-(2-methoxyphenyl)-3′-(propan-2-yl)-1,2,5′,6′-tetrahydro-2′H-spiro[indole-3,4′-pyrrolo[3,4-c]pyrazole]-2,6′-dione]
4.3 | 0.46 | COc1ccccc1-n1nc2c(c1C(C)C)C1(C(=O)Nc3cc(Cl)ccc31)N(c1cc(Cl)cnc1C)C2=O (centres unmarked) [Compound 71, 6-chloro-5′-(5-chloro-2-methylpyridin-3-yl)-2′-(2-methoxyphenyl)-3′-(propan-2-yl)-1,2,5′,6′-tetrahydro-2′H-spiro[indole-3,4′-pyrrolo[3,4-c]pyrazole]-2,6′-dione]
1.9 | 0.22 | COc1ccccc1-n1nc2c(c1C(C)C)[C@@]1(C(=O)Nc3cc(Cl)ccc31)N(c1cc(Cl)ccc1C)C2=O [Compound 65, (3S)-6-chloro-5′-(5-chloro-2-methyl-phenyl)-2′-(2-methoxyphenyl)-3′-(propan-2-yl)-1,2,5′,6′-tetrahydro-2′H-spiro[indole-3,4′-pyrrolo[3,4-c]pyrazole]-2,6′-dione]
